Assay results: PubChem BioAssay AID179 (DTP/NCI, 2004)
“And” between values parts separate entries of the source, which are not always exact repeats. Identical values can stand only once. The source made the active and inactive calls.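 Rule for the calls: active = compounds giving half or more protection of infected cells from virus-caused growth loss, again on retest; inactive = the rest.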 *1 amine or outer side, *2 acyl side, *3 side chain or, on linkers, in order; H or OH if unused. Where a SMILES comes first, the peptide text is derived from it. Bridges are numbered along the chain shown (N, C = ends). [ ]: non-standard residue; d: D form. The star is where a group is joined. ξ: configuration not given here. γ4hArg(2R,3R-(OH)2) = N=C(N)NCCC[C@H](N[*:1])[C@@H](O)[C@@H](O)C(=O)[*:2]; Gln(3S,4R-Me2) = C[C@H]([C@H](N)C(=O)O)[C@@H](C)C(N)=O; X5 = CC(C)C[C@H](C)[C@@H](O)[C@@H](C)C(=O)*; X6 = COC(c1ccc(O)cc1)C(N[*:1])C(=O)[*:2]; NMeQ = CN[C@@H](CCC(N)=O)C(=O)O; Thr(3ξ) = CC(O)[C@H](N)C(=O)O; NMeA = CN[C@@H](C)C(=O)O

Test system: CEM cells HIV-1 protection, formazan growth assay
Assay: NCI AIDS Antiviral Assay
Conditions: for IC50: measured here: growth of uninfected CEM cells
Summary of the method: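 CEM (human) cells, HIV-1 infected vs uninfected, 5-point dosing, formazan growth read-out. Retest threshold 50% protection.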

Compound | EC50 | IC50 | outcome
O=C(CCN1CCCCC1)N1CCc2c([nH]c3ccccc23)C1c1cccnc1 (configuration not stated) | > 13.5 µM | > 13.5 µM | –
Cn1cnc(N2CCCC2)c(C#N)c1=S | > 200 µM | > 200 µM | –
OC12CC/C(=N/OCc3ccccc3)CC1c1ccccc12 (configuration not stated) | > 162 µM | 148 µM | –
O=C1Sc2ccc(Br)cc2C(=O)N2CSCC12 (configuration not stated) | > 200 µM | > 200 µM | –
CCN(CC)CCOc1ccccc1/C=C/c1noc2ccccc12 | > 200 µM | 29.5 µM | –
CN(C)CCNC(=O)c1cccc2c(Nc3ccc(S(=O)(=O)N=C(N)N)cc3)c3ccccc3nc12 | – | – | inactive
CC#CC(O)(C(=O)OC1CCC2CCC1N2C)C1CCCC1 (configuration not stated) | > 200 µM | > 200 µM | –
CCOC(=O)CSc1nnc(C(Sc2nc(-c3ccccc3)c(-c3ccccc3)[nH]2)C(C)C)n1-c1ccccc1 (configuration not stated) | > 24 µM | > 24 µM | –
CCNc1cc2c3c(c1)CCN3CCC2 | > 60.3 µM | 10.2 µM | –
CN(C)P1(=O)NCC(C)(C)CO1 (configuration not stated) | > 1290 µM | > 1290 µM | –
CC(C)(C)OC(=O)NC(Cc1ccccc1)/C(O)=C(\C#N)c1ccc([N+](=O)[O-])cc1 (configuration not stated) | > 200 µM | 83.2 µM | –
O=C(CN1CCOCC1)c1ccc2c(c1)oc(=O)n2CCN1CCOCC1 | > 200 µM | > 200 µM | –
CC(=O)N(CCN)CCN | – | – | inactive
O=NN(O)c1ccccc1.O=NN(O)c1ccccc1.[Cu] | – | – | inactive
O=[N+]([O-])c1ccc(C[N+]23CCN(CC2)CC3)cc1 | – | – | inactive
COC(=O)C1=C(C(=O)OC)C2C(C)=CC(C)=CN2C(C#N)=C(SC)S1 (configuration not stated) | > 13.8 µM | > 13.8 µM | –
CCN(CC)C(=S)N=N/C(C)=C1/C=CC=CN1O | > 200 µM | 1.1 µM | –
COc1ccc(COCCOCc2nc(C#N)c(N)o2)cc1 | > 200 µM | 135 µM | –
COC1N(C2CC(N=[N+]=[N-])C(CO)O2)C(=O)NC(=O)C1(C)Br (configuration not stated) | 0.00479 µM and 0.00263 µM and 0.0049 µM | 40.7 µM and 38.9 µM and 16.2 µM | –
COC(=O)C1=C(OC)C(=P2(c3ccccc3)CC(c3ccccc3)=C2c2ccccc2)C(C(=O)OC)=C1C(=O)OC (configuration not stated) | – | – | inactive
CC(=O)N1C(C(=O)NN2CCOCC2)CSC1c1ccccc1 (configuration not stated) | > 200 µM | > 200 µM | –

Compound | EC50 | IC50 | outcome
O=C(/C=N/O)Nc1cccc(Cl)c1I | > 110 µM | 93.3 µM | –
COc1ccc(CNc2nc3cc(C(F)(F)F)ccc3nc2C(=O)O)cc1 | > 200 µM | 38.9 µM | –
Cc1cc(NS(=O)(=O)c2ccc(NC(=O)c3cccc4c(Nc5ccc(S(=O)(=O)N=C(N)N)cc5)c5ccccc5nc34)cc2)no1 | 52.5 µM | 53.7 µM | –
Cn1c(=O)sc2cc(C(=S)N3CCN(c4ccccc4)CC3)ccc21 | 87.1 µM | 107 µM | –
O=C1N/C(=N\N=C\c2ccccc2)C2(CCCCC2)O1 | > 200 µM | 97.7 µM | –
C/C(=N/NC(=S)N1CC2CCC(CC2)C1)c1cnccn1 | > 2.24 µM | 0.049 µM | –
CCOC(=O)CSC1NC(C(=O)OC)CC1OC (configuration not stated) | > 200 µM | > 200 µM | –
CC1(C)OC(=O)C(=Cc2ccccc2Cl)C(=O)O1 | > 490 µM | 2.45 µM | –
COC(=O)CP1(=O)OC2C(C3CCC2(C)C3(C)C)N1c1cc(C(F)(F)F)cc(C(F)(F)F)c1 (configuration not stated) | > 200 µM | – | –
c1ccc2c(c1)SC1Sc3ccccc3[S+]21 (configuration not stated) | > 200 µM | 11.5 µM | –
CCOC(=O)NN(C(=O)OCC)C(C(=O)C1=CCCCC1)N(NC(=O)OCC)C(=O)OCC | > 200 µM | > 200 µM | –
C=C(C)COC1CCCCO1 (configuration not stated) | > 200 µM | 38 µM | –
CC1CC2C(=O)N(c3ccccc3)C(=O)C2c2c1c1ccccc1n2Cc1ccccc1 (configuration not stated) | – | – | inactive
CNC(=O)C1CCC(=O)N1CN(C(C)=O)c1ccccc1 (configuration not stated) | > 200 µM | > 200 µM | –
COc1ccc(N=C(Nc2ccc(OC)cc2)C(=Nc2ccc(OC)cc2)Nc2ccc(OC)cc2)cc1 | > 200 µM | 28.2 µM | –
CC(C)=CCC/C(C)=C/CCC(C)/C=C/C(=O)NC[C@@H]1CC[N@+]2(C)CCCC[C@H]12 (some centres not stated) | > 501 µM | 23.4 µM | –
O=c1[nH]c2ccccc2c(O)c1Cc1c(O)c2ccccc2[nH]c1=O | > 25.1 µM | > 25.1 µM | –
N#Cc1c(N=Cc2ccccc2)c(C(=O)Nc2ccccc2)n2c1CCC2 | > 50.1 µM | > 50.1 µM | –
CC(=O)OCC1OC(NC(=S)CCSc2nc3ccccc3c(=O)n2-c2ccccc2)C(OC(C)=O)C(OC(C)=O)C1OC(C)=O (configuration not stated) | > 200 µM | 28.2 µM | –
N#CC(C(=O)/C(=N/NC(=O)c1ccccc1O)C(C#N)c1ccc(Cl)cc1)c1ccc(Cl)cc1 (configuration not stated) | > 40.7 µM | 22.4 µM | –
[N-]=[N+]=Nc1ccc(CNc2cc(=O)[nH]c(=O)[nH]2)cc1 | > 200 µM | > 200 µM | –

Compound | EC50 | IC50 | outcome
O=C(Oc1ccccc1)c1cccc(C(=O)Oc2ccccc2)c1 | > 16.2 µM | > 16.2 µM | –
COC(c1ccc(O)cc1)C1NC(=O)[C@H](CCC(N)=O)N(C)C(=O)[C@H](CC(C)C)NC(=O)[C@@H](CCCN=C(N)N)NC(=O)[C@H](C(C)O)NC(=O)[C@@H](NC(=O)[C@@H](NC(=O)[C@H](O)[C@H](O)[C@H](CCCN=C(N)N)NC(=O)[C@H](C)NC(=O)[C@H](C)[C@H](O)[C@@H](C)CC(C)C)[C@@H](C)[C@@H](C)C(N)=O)[C@@H](C)OC(=O)[C@H](C)N(C)C1=O (stereo partly drawn) (X5-A[γ4hArg(2R,3R-(OH)2)][Gln(3S,4R-Me2)]T[Thr(3ξ)][dR]L[NMeQ][X6][NMeA]; ester 4-C) | 0.0933 µM | 0.794 µM | –
CC1CC(c2cccc3c2OCO3)=Nc2ccccc2S1 (configuration not stated) | > 17.4 µM | > 17.4 µM | –
COC(=O)C1(Cc2cccc(Cl)c2)CCCCCCN1C(=O)c1ccccc1 (configuration not stated) | > 112 µM | 20.4 µM | –
COc1cc2c[n+](C)c3c(c2cc1OC)Cc1cc2c(cc1-3)OCO2 | > 19.5 µM | > 19.5 µM | –
Cc1cc2c(=O)cc(-c3ccc(O)cc3)oc2c(C(=O)O)c1C | – | – | inactive
COc1ccc(/C=C/C(=O)Oc2ccc(/C=C3\CCCCC3=O)cc2)cc1 | > 200 µM | 1.05 µM | –
COC1=C(C)C(=O)c2c(c(COC(N)=O)c3n2CC(OC(C)=O)C3OC(C)=O)C1=O (configuration not stated) | > 2 µM | 0.178 µM | –
O=S1(=O)OCCOS(=O)(=O)C1(Cl)Cl | > 50.1 µM | > 50.1 µM | –
CCCCC(=O)NS(=NC(=O)c1ccccc1)C(Cl)(Cl)Cl (configuration not stated) | > 200 µM | > 200 µM | –
Cc1ccc2c(c1C)C(=O)C1(Cc3cc4c(cc3C1=O)CCC4)C2 (configuration not stated) | > 100 µM | > 100 µM | –
CCCc1c(C(=O)OCC)[nH]c(-c2ccc(-c3[nH]c(C(=O)OCC)c(CCC)c3C(=O)OCC)o2)c1C(=O)OCC | > 4.79 µM | > 4.79 µM | –
CC(C)Oc1cc2c(c3oc(=O)cc(-c4ccccc4)c13)C(=O)[C@H](C)[C@@H](C)O2 | > 200 µM | 51.3 µM | –
S=C(/N=N/c1[nH]c2ccccc2c1NNC(=S)NC12CC3CC(CC(C3)C1)C2)NC12CC3CC(CC(C3)C1)C2 | – | – | inactive
CC(=O)n1c2ccc(Br)cc2c2nc3ccccc3nc21 | > 200 µM | > 200 µM | –
CCOC(=O)C(=CNC(=S)Nc1c(CC)cccc1C(C)(C)C)C(=O)OCC | > 200 µM | > 200 µM | –
CC(=O)NC1=NC(=O)/C(=C\c2cccc(Cl)c2Cl)N1C | > 200 µM | 81.3 µM | –
NNC(=O)CC(=O)Nc1ccc(C(=O)O)cc1 | > 200 µM | > 200 µM | –
COc1ccc(/C=N/NS(=O)(=O)c2ccccc2)cc1 | – | – | inactive
O=C1/C(=C/c2cccs2)NC(=S)N1CN1CCCC(CO)C1 (configuration not stated) | > 200 µM | 44.7 µM | –
CN(C)C=Nc1c(Br)cc(Br)c2nonc12 | > 200 µM | > 200 µM | –

Compound | EC50 | IC50 | outcome
COc1ccc2c(C)cc(=O)oc2c1OC | > 200 µM | > 200 µM | –
N#CCCN(CCC#N)c1ccc(/C=C2\SC(=S)NC2=O)cc1Br | > 200 µM | > 200 µM | –
CC(O)C(O)C(N)CC=O (configuration not stated) | > 200 µM | > 200 µM | –
NCCn1ccc(NC(c2ccccc2)(c2ccccc2)c2ccccc2)nc1=O | > 91.2 µM | 45.7 µM | –
O=C(O)C(CS)N=c1c2ccccc2n(O)c2ccccc12 (configuration not stated) | – | – | inactive
C[C@@](O)(/C=C/[C@H]1CC=CC(=O)O1)[C@@H](C[C@@H](O)\C=C/C=C\C=C\CO)OP(=O)(O)O | – | – | inactive
COc1ccc(N2C(=O)CC(c3c[nH]c4ccccc34)C2=O)cc1 (configuration not stated) | > 200 µM | 182 µM | –
CCCCCC(C)SC1(C(=O)OC)CC(OC(C)=O)C(NC(C)=O)C([C@H](OC(C)=O)[C@@H](COC(C)=O)OC(C)=O)O1 (some centres not stated) | > 200 µM | 63.1 µM | –
CN(C)c1ccc(C=C2C(=O)OC(C)(C)OC2=O)cc1Br | > 28.2 µM | > 28.2 µM | –
FC(F)(F)c1ccccc1C1SCc2nc3ccccc3n21 (configuration not stated) | – | – | inactive
CC(=O)NC(C)(C)C1CC=C(C)/C(=N\O)C1 (configuration not stated) | > 1120 µM | 776 µM | –
COC(=O)c1ccccc1CC1Cc2ccc3c(c2C1=O)CCC3 (configuration not stated) | > 200 µM | > 200 µM | –
CCCCC[C@H]1CCCCCCCCCC(=O)OC2C(O[C@@H]3OC(C)[C@H](OC(=O)[C@@H](C)CC)C(O[C@@H]4OC(C)[C@H](O)C(O)[C@@H]4O)[C@@H]3OC(=O)[C@H](C)CC)[C@H](OC3C(O)[C@@H](O)C(C)O[C@H]3O1)OC(CO)[C@H]2O (some centres not stated) | > 200 µM | 11.2 µM | –
O=C(O)c1ccccc1C(=O)NC(Cc1cnc[nH]1)C(=O)O (configuration not stated) | > 200 µM | > 200 µM | –
CCC(=O)c1ccc2[nH]c3c(C)c4c(=O)cc(C)[nH]c4c(C)c3c2c1 | > 100 µM | > 100 µM | –
CC1(C)OC(=O)c2cc(C(=CCCO)c3cc(Cl)c4c(c3)C(=O)OC(C)(C)O4)cc(Cl)c2O1 | > 200 µM | 28.8 µM | –
Cc1nc2ccc(N)cc2[nH]c1=O | > 741 µM | > 741 µM | –
CC(=O)O[C@]1(C)OC(=O)[C@@H](CC(C)C)N1[N+](=O)[O-] | – | – | inactive
NCCCC[C@H](NC(=O)[C@H](CS)NC(=O)[C@@H](N)Cc1cnc[nH]1)C(=O)N[C@@H](Cc1ccc(O)cc1)C(=O)N[C@@H](Cc1c[nH]c2ccccc12)C(=O)N[C@@H](Cc1c[nH]c2ccccc12)C(N)=O | > 200 µM | > 200 µM | –
CC(C)OP(=O)(OC(C)C)/C(=N/N)NNc1ccc([N+](=O)[O-])cc1 | > 138 µM | 83.2 µM | –
